# Laboratory results as given in PubChem BioAssay (NCI).
#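 GI50: concentration for 50% inhibition of growth. TGI denotes the concentration required for complete inhibition of growth.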
# How the values were obtained:
# Assay in all cases: inhibition of tumour cell growth, NCI panel, 384-well format
# NCI-H460 NSCLC = test system: NCI-H460 NSCLC
# NCI-H522 lung = test system: NCI-H522 lung
# OVCAR-3 ovarian = test system: OVCAR-3 ovarian
# OVCAR-4 ovarian = test system: OVCAR-4 ovarian
# OVCAR-8 ovarian = test system: OVCAR-8 ovarian
# PC-3 prostate = test system: PC-3 prostate
# RPMI-8226 leukemia = test system: RPMI-8226 leukemia
# RXF 393 renal = test system: RXF 393 renal
# SF-268 CNS = test system: SF-268 CNS
# SF-295 CNS = test system: SF-295 CNS
# SF-539 CNS = test system: SF-539 CNS
# SK-MEL-2 melanoma = test system: SK-MEL-2 melanoma
# SK-MEL-28 melanoma = test system: SK-MEL-28 melanoma
# SK-MEL-5 melanoma = test system: SK-MEL-5 melanoma
# SK-OV-3 ovarian = test system: SK-OV-3 ovarian
# SNB-19 CNS = test system: SNB-19 CNS
# SR leukemia = test system: SR leukemia
# SW-620 colon = test system: SW-620 colon
# T-47D breast = test system: T-47D breast
# TK-10 renal = test system: TK-10 renal
# U251 glioblastoma = test system: U251 glioblastoma
# UACC-257 melanoma = test system: UACC-257 melanoma
# UACC-62 melanoma = test system: UACC-62 melanoma
# UO-31 renal = test system: UO-31 renal
smiles,measurement,setting,value
CC(=O)N1CCC(Nc2cc(C(=O)NC[C@H](O)CN3CCc4ccccc4C3)ncn2)CC1,TGI,NCI-H460 NSCLC,> 100 µM
same,GI50,NCI-H522 lung,> 100 µM
same,TGI,NCI-H522 lung,> 100 µM
same,GI50,OVCAR-3 ovarian,> 100 µM
same,TGI,OVCAR-3 ovarian,> 100 µM
same,GI50,OVCAR-4 ovarian,4.44 µM
same,TGI,OVCAR-4 ovarian,> 100 µM
same,GI50,OVCAR-8 ovarian,> 100 µM
same,TGI,OVCAR-8 ovarian,> 100 µM
same,GI50,PC-3 prostate,> 100 µM
same,TGI,PC-3 prostate,> 100 µM
same,GI50,RPMI-8226 leukemia,61.6 µM
same,TGI,RPMI-8226 leukemia,> 100 µM
same,GI50,RXF 393 renal,> 100 µM
same,TGI,RXF 393 renal,> 100 µM
same,GI50,SF-268 CNS,> 100 µM
same,TGI,SF-268 CNS,> 100 µM
same,GI50,SF-295 CNS,> 100 µM
same,TGI,SF-295 CNS,> 100 µM
same,GI50,SF-539 CNS,> 100 µM
same,TGI,SF-539 CNS,> 100 µM
same,GI50,SK-MEL-2 melanoma,> 100 µM
same,TGI,SK-MEL-2 melanoma,> 100 µM
same,GI50,SK-MEL-28 melanoma,> 100 µM
same,TGI,SK-MEL-28 melanoma,> 100 µM
same,GI50,SK-MEL-5 melanoma,> 100 µM
same,TGI,SK-MEL-5 melanoma,> 100 µM
same,GI50,SK-OV-3 ovarian,> 100 µM
same,TGI,SK-OV-3 ovarian,> 100 µM
same,GI50,SNB-19 CNS,> 100 µM
same,TGI,SNB-19 CNS,> 100 µM
same,GI50,SR leukemia,0.183 µM
same,TGI,SR leukemia,> 100 µM
same,GI50,SW-620 colon,> 35.6 µM
same,TGI,SW-620 colon,> 100 µM
same,GI50,T-47D breast,0.658 µM
same,TGI,T-47D breast,> 100 µM
same,GI50,TK-10 renal,> 100 µM
same,TGI,TK-10 renal,> 100 µM
same,GI50,U251 glioblastoma,> 100 µM
same,TGI,U251 glioblastoma,> 100 µM
same,GI50,UACC-257 melanoma,> 100 µM
same,TGI,UACC-257 melanoma,> 100 µM
same,GI50,UACC-62 melanoma,> 100 µM
same,TGI,UACC-62 melanoma,> 100 µM
same,GI50,UO-31 renal,> 100 µM
same,TGI,UO-31 renal,> 100 µM
